Experimental data published in the NIST ThermoML archive (doi:10.1021/je700176d).
Numbers after ± are expanded uncertainties. Values belong to the compound of their own block, whether it stands above or below them.

Conditions: 101.33 kPa, Liquid, transient hot wire

Compound: CCCCCCCCn1cc[n+](C)c1.O=S(=O)([N-]S(=O)(=O)C(F)(F)F)C(F)(F)F
thermal conductivity (293 K): 0.128 ± 0.01 W/m/K | thermal conductivity (303 K): 0.128 ± 0.01 W/m/K | thermal conductivity (313 K): 0.128 ± 0.01 W/m/K | thermal conductivity (323 K): 0.126 ± 0.01 W/m/K | thermal conductivity (333 K): 0.126 ± 0.01 W/m/K | thermal conductivity (343 K): 0.125 ± 0.01 W/m/K | thermal conductivity (353 K): 0.126 ± 0.01 W/m/K

Compound: CCCCCC[n+]1ccn(C)c1.O=S(=O)([N-]S(=O)(=O)C(F)(F)F)C(F)(F)F
thermal conductivity (293 K): 0.127 ± 0.01 W/m/K | thermal conductivity (303 K): 0.127 ± 0.01 W/m/K | thermal conductivity (313 K): 0.127 ± 0.01 W/m/K | thermal conductivity (323 K): 0.126 ± 0.01 W/m/K | thermal conductivity (333 K): 0.125 ± 0.01 W/m/K | thermal conductivity (343 K): 0.125 ± 0.01 W/m/K | thermal conductivity (353 K): 0.125 ± 0.01 W/m/K

Compound: CCCCCCCCCCCCCC[P+](CCCCCC)(CCCCCC)CCCCCC.[Cl-] [trihexyl(tetradecyl)phosphonium chloride]
thermal conductivity (293 K): 0.161 ± 0.01 W/m/K | thermal conductivity (303 K): 0.16 ± 0.01 W/m/K | thermal conductivity (313 K): 0.159 ± 0.01 W/m/K | thermal conductivity (323 K): 0.157 ± 0.01 W/m/K | thermal conductivity (333 K): 0.157 ± 0.01 W/m/K | thermal conductivity (343 K): 0.156 ± 0.01 W/m/K | thermal conductivity (353 K): 0.155 ± 0.01 W/m/K

Compound: CCCC[N+]1(C)CCCC1.O=S(=O)([N-]S(=O)(=O)C(F)(F)F)C(F)(F)F
thermal conductivity (293 K): 0.125 ± 0.01 W/m/K | thermal conductivity (303 K): 0.125 ± 0.01 W/m/K | thermal conductivity (313 K): 0.124 ± 0.01 W/m/K | thermal conductivity (323 K): 0.124 ± 0.01 W/m/K

thermal conductivity (293 K): 0.147 ± 0.01 W/m/K | thermal conductivity (303 K): 0.146 ± 0.01 W/m/K | thermal conductivity (313 K): 0.145 ± 0.01 W/m/K | thermal conductivity (323 K): 0.144 ± 0.01 W/m/K | thermal conductivity (333 K): 0.144 ± 0.01 W/m/K | thermal conductivity (343 K): 0.143 ± 0.01 W/m/K | thermal conductivity (353 K): 0.142 ± 0.01 W/m/K
Compound: CCCCn1cc[n+](C)c1.O=S(=O)([O-])C(F)(F)F [1-butyl-3-methylimidazolium trifluoromethanesulfonate]

Compound: CCOS(=O)(=O)[O-].CCn1cc[n+](C)c1 [1-ethyl-3-methylimidazolium ethyl sulfate]
thermal conductivity (293 K): 0.182 ± 0.01 W/m/K | thermal conductivity (303 K): 0.181 ± 0.01 W/m/K | thermal conductivity (313 K): 0.181 ± 0.01 W/m/K | thermal conductivity (323 K): 0.179 ± 0.01 W/m/K | thermal conductivity (333 K): 0.179 ± 0.01 W/m/K | thermal conductivity (343 K): 0.178 ± 0.01 W/m/K | thermal conductivity (353 K): 0.177 ± 0.01 W/m/K

Compound: CCCC[n+]1ccn(C)c1.O=S(=O)([N-]S(=O)(=O)C(F)(F)F)C(F)(F)F
thermal conductivity (293 K): 0.128 ± 0.01 W/m/K | thermal conductivity (303 K): 0.127 ± 0.01 W/m/K | thermal conductivity (313 K): 0.127 ± 0.01 W/m/K | thermal conductivity (323 K): 0.126 ± 0.01 W/m/K | thermal conductivity (333 K): 0.125 ± 0.01 W/m/K | thermal conductivity (343 K): 0.124 ± 0.01 W/m/K | thermal conductivity (353 K): 0.124 ± 0.01 W/m/K

Compound: CCCCCCCCCCn1cc[n+](C)c1.O=S(=O)([N-]S(=O)(=O)C(F)(F)F)C(F)(F)F
thermal conductivity (293 K): 0.132 ± 0.01 W/m/K | thermal conductivity (303 K): 0.131 ± 0.01 W/m/K | thermal conductivity (313 K): 0.13 ± 0.01 W/m/K | thermal conductivity (323 K): 0.129 ± 0.01 W/m/K | thermal conductivity (333 K): 0.128 ± 0.01 W/m/K | thermal conductivity (343 K): 0.128 ± 0.01 W/m/K | thermal conductivity (353 K): 0.128 ± 0.01 W/m/K

Compound: CCCCCCCCCCCCCC[P+](CCCCCC)(CCCCCC)CCCCCC.O=S(=O)([N-]S(=O)(=O)C(F)(F)F)C(F)(F)F
thermal conductivity (293 K): 0.144 ± 0.01 W/m/K | thermal conductivity (303 K): 0.143 ± 0.01 W/m/K | thermal conductivity (313 K): 0.142 ± 0.01 W/m/K | thermal conductivity (323 K): 0.141 ± 0.01 W/m/K | thermal conductivity (333 K): 0.141 ± 0.01 W/m/K | thermal conductivity (343 K): 0.14 ± 0.01 W/m/K | thermal conductivity (353 K): 0.139 ± 0.01 W/m/K

Compound: CCn1cc[n+](C)c1.O=S(=O)([N-]S(=O)(=O)C(F)(F)F)C(F)(F)F
thermal conductivity (293 K): 0.13 ± 0.01 W/m/K | thermal conductivity (303 K): 0.13 ± 0.01 W/m/K | thermal conductivity (313 K): 0.129 ± 0.01 W/m/K | thermal conductivity (323 K): 0.129 ± 0.01 W/m/K | thermal conductivity (333 K): 0.129 ± 0.01 W/m/K | thermal conductivity (343 K): 0.129 ± 0.01 W/m/K | thermal conductivity (353 K): 0.128 ± 0.01 W/m/K

Compound: CCCC[N+]1(C)CCCC1.FC(F)(F)C(F)(F)[P-](F)(F)(F)(C(F)(F)C(F)(F)F)C(F)(F)C(F)(F)F
thermal conductivity (293 K): 0.107 ± 0.01 W/m/K | thermal conductivity (303 K): 0.106 ± 0.01 W/m/K | thermal conductivity (313 K): 0.106 ± 0.01 W/m/K | thermal conductivity (323 K): 0.105 ± 0.01 W/m/K | thermal conductivity (333 K): 0.105 ± 0.01 W/m/K | thermal conductivity (343 K): 0.105 ± 0.01 W/m/K | thermal conductivity (353 K): 0.105 ± 0.01 W/m/K
